According to patent US20250304623A1, “PEPTIDES FOR INTRACELLULAR DELIVERY” (UNIVERSIDADE DE SANTIAGO DE COMPOSTELA, priority 2022, published 2025):
*: point of attachment. NHNH2 = NN*

Legend:
Format in all cases: cell-based
HCT116 cells = test: EGFP mRNA delivery, robotic library screening, HCT116
Protocol: Cells were seeded in a 96 well plate the day before the experiment at a concentration of 50,000 cell/mL (100 μL/w) in DMEM+10% FBS+1% Gln-Abt. For robotic library screening, the delivery of EGFP-mRNA (from TriLink, fully substituted with 5-methoxyuridine, capped and polyadenylated; TriLink, CleanCap® EGFP mRNA (5moU), ref. L-7201) in six different cell lines was performed. Amphiphilic molecule stock solutions were prepared in DMSO as described above and diluted in DMEM to afford a range of concentrations. The solutions of EGFP-mRNA/amphiphilic molecule complexes were freshly prepared prior to the transfection experiments. 35 μL of the corresponding amphiphile were added to 10 μL of a solution of EGFP-mRNA at 10 ng/μL in DMEM. The mixture was shaken for 30 min at room temperature before the addition to the cells. The cell medium was aspirated, and cells were washed with PBS twice. Cells were covered with 39 μL of DMEM and 11 μL of the complex's solution were added to the cells and incubated for 4 h (final concentration of peptide=2.5, 5 and 10 μM; final concentration of EGFP-mRNA=25 ng/well). After the incubation, the medium was replaced by 100 μL of fresh DMEM supplemented with 10% FBS. The total EGFP fluorescence was quantified after 72 h in a well plate reader. Amphiphile transfection efficiency was compared and normalized to Lipofectamine® MessengerMax efficiency (value of 1 in Tables 1-5 and 7; double underlined numbers). All experiments were done in triplicate.
(§1) Tables 1-7: RLuc (pDNA) or EGFP (mRNA) expression levels were normalized to Lipofectamine reagents (value=1) and expressed as fold-times signal increase. In the case of siRNA, the siRNA treated cells fluorescence was compared with siMOCK control fluorescence, while Cas9-RNP mediated knockout was measured against the fluorescence of untreated cells. In both siRNA and Cas9-RNP, values are expressed as % fluorescence reduction. Amphiphile concentration was 5 μM in all cases. All experiments were performed in triplicate.
Tables 14-19 show the mean (triplicates) fluorescence intensity measured after the transfection of EGFP mRNA by different amphiphiles at different concentrations in a variety of cell lines. Background fluorescence values, accounted by untreated control cells, were subtracted for processing.

A549 cells = test: RLuc pDNA delivery, robotic library screening, A549
Protocol: Cells were seeded in a 96 well plate the day before the experiment at a concentration of 60,000 cell/mL (100 μL/w) in DMEM+10% FBS+1% Gln-Abt. For robotic library screening, the delivery of pDNA encoding for the expression of Renilla luciferase gene (RLuc, pRL-CMV (Promega, #E2261)) in six different cell lines was performed. Amphihilic molecule stock solutions in DMSO were diluted with DMEM and freshly mixed with pDNA stock solutions in DMEM prior to transfection experiments, to afford several complexes at different amphiphile concentration (2-10 μM) while maintaining a constant final pDNA concentration of 2 ng/μL. The mixture was shaken for 30 min at room temperature before the addition to the cells. The cell medium was aspirated, and cells were washed twice with PBS. Finally, 50 μL of the complex's solution were added to the cells and incubated for 4 h. After the incubation, the medium was replaced by 100 μL of fresh DMEM supplemented with 10% FBS. 72 hours after transfection the DMEM was removed, cells were washed once with HBSS and 90 μL of HBSS were added to each well. Cells were incubated at 37° C. for 30 minutes. Then basal luminescence levels were read in a plate reader. Immediately, 10 μL of coelenterazine h in HBSS were added to each well (5 μM final concentration) and cells were incubated at 37° C. for 10 minutes. Finally, the total luminescence measurement of the plates was performed. Amphiphile transfection efficiency was compared and normalized to Lipofectamine® 2000 efficiency (value of 1 in Tables 1-5 and 7; bold numbers). All experiments were done in triplicate.
as §1
Tables 8-13 show the mean (triplicates) luminescent intensity (RLU) measured after the transfection of RLuc pDNA by different amphiphiles at different concentrations in a variety of cell lines. Background luminescence values, accounted by untransfected control cells, were subtracted for processing.

Hek293 cells = test: RLuc pDNA delivery, robotic library screening, Hek293

Substance | mean fluorescence intensity (EGFP mRNA) (HCT116 cells; Myristoleyl, 2.5 μM) | mean fluorescence intensity (EGFP mRNA) (HCT116 cells; Petroselinyl, 2.5 μM) | mean fluorescence intensity (EGFP mRNA) (HCT116 cells; Petroselinyl, 5 μM) | mean fluorescence intensity (EGFP mRNA) (HCT116 cells; Petroselinyl, 10 μM) | mean luminescent intensity (RLuc pDNA) (A549 cells; Myristoleyl, 10 μM) | mean luminescent intensity (RLuc pDNA) (A549 cells; Oleyl, 10 μM) | mean luminescent intensity (RLuc pDNA) (A549 cells; Oleyl, 15 μM) | mean luminescent intensity (RLuc pDNA) (A549 cells; Palmitoleyl, 5 μM) | mean luminescent intensity (RLuc pDNA) (A549 cells; Palmitoleyl, 15 μM) | mean luminescent intensity (RLuc pDNA) (A549 cells; Petroselinyl, 15 μM) | mean luminescent intensity (RLuc pDNA) (Hek293 cells; Dodecanal, 10 μM) | mean luminescent intensity (RLuc pDNA) (Hek293 cells; Dodecanal, 15 μM) | mean luminescent intensity (RLuc pDNA) (Hek293 cells; Palmitoleyl, 5 μM) | mean luminescent intensity (RLuc pDNA) (Hek293 cells; Palmitoleyl, 10 μM) | mean luminescent intensity (RLuc pDNA) (Hek293 cells; Palmitoleyl, 15 μM) | mean luminescent intensity (RLuc pDNA) (A549 cells; Myristoleyl, 5 μM) | mean luminescent intensity (RLuc pDNA) (Hek293 cells; Petroselinyl, 5 μM) | mean luminescent intensity (RLuc pDNA) (Hek293 cells; Petroselinyl, 10 μM) | mean luminescent intensity (RLuc pDNA) (Hek293 cells; Petroselinyl, 15 μM) | mean luminescent intensity (RLuc pDNA) (A549 cells; Oleyl, 5 μM) | other results
Ac-RRLK*RLLRRLK*RLK*RRL-NH2 (Ac-RRLK(NHNH2)RLLRRLK(NHNH2)RLK(NHNH2)RRL-NH2; not fully specified; printed as Ac-RRLK*RLLRRLK*RLK*RRL-NH2; also: K*4,K*11,K*14: native or modified lysine (ε-amide to a linker)) [Peptide 17.3] | 570 | 373 | 168 | 66 | 1545 RLU | 1201 RLU | 1552 RLU | 2518 RLU | 2585 RLU | 2614 RLU | 12692 RLU | 3248 RLU | 10403 RLU | 1319 RLU | −644 RLU |  |  |  |  |  | mean fluorescence intensity (EGFP mRNA) (HCT116 cells; Dodecanal, 5 μM): 130; mean fluorescence intensity (EGFP mRNA) (HCT116 cells; Dodecanal, 10 μM): 312; mean fluorescence intensity (EGFP mRNA) (HCT116 cells; Myristoleyl, 5 μM): 247; mean luminescent intensity (RLuc pDNA) (A549 cells; Dodecanal, 10 μM): 1381 RLU; mean luminescent intensity (RLuc pDNA) (A549 cells; Dodecanal, 15 μM): 1660 RLU; mean luminescent intensity (RLuc pDNA) (A549 cells; Myristoleyl, 15 μM): 2581 RLU; mean luminescent intensity (RLuc pDNA) (Hek293 cells; Myristoleyl, 5 μM): 158771 RLU; mean luminescent intensity (RLuc pDNA) (Hek293 cells; Myristoleyl, 10 μM): 4717 RLU; mean luminescent intensity (RLuc pDNA) (Hek293 cells; Myristoleyl, 15 μM): −110 RLU
Ac-RK*LRRK*LRK*-NH2 (Ac-RK(NHNH2)LRRK(NHNH2)LRK(NHNH2)-NH2; not fully specified; printed as Ac-RK*LRRK*LRK*-NH2; also: K*2,K*6,K*9: native or modified lysine (ε-amide to a linker)) [Peptide 9.3] | 2151 |  | 919 | 1252 | 32698 RLU | 1117 RLU | 1433 RLU |  | 9967 RLU | 5514 RLU | 71221 RLU | 33244 RLU | −143 RLU | −284 RLU | 3126 RLU | 23125 RLU | −1091 RLU | −1142 RLU | 147 RLU |  | mean fluorescence intensity (EGFP mRNA) (HCT116 cells; Dodecanal, 5 μM): 526; mean fluorescence intensity (EGFP mRNA) (HCT116 cells; Oleyl, 2.5 μM): 1067; mean fluorescence intensity (EGFP mRNA) (HCT116 cells; Oleyl, 5 μM): 910; mean fluorescence intensity (EGFP mRNA) (HCT116 cells; Oleyl, 10 μM): 1044; mean luminescent intensity (RLuc pDNA) (A549 cells; Dodecanal, 10 μM): 2898 RLU; mean luminescent intensity (RLuc pDNA) (A549 cells; Myristoleyl, 15 μM): 6504 RLU; mean luminescent intensity (RLuc pDNA) (A549 cells; Palmitoleyl, 10 μM): 5800 RLU; mean luminescent intensity (RLuc pDNA) (A549 cells; Petroselinyl, 10 μM): 4167 RLU; mean luminescent intensity (RLuc pDNA) (Hek293 cells; Oleyl, 15 μM): 4792 RLU
Ac-RRLK*RLLRRLK*RL-NH2 (Ac-RRLK(NHNH2)RLLRRLK(NHNH2)RL-NH2; not fully specified; printed as Ac-RRLK*RLLRRLK*RL-NH2; also: K*4,K*11: native or modified lysine (ε-amide to a linker)) [Peptide 13.2] |  |  |  |  |  | 1152 RLU | 1367 RLU |  |  |  |  |  |  |  |  |  |  |  |  | 2368 RLU | mean luminescent intensity (RLuc pDNA) (Hek293 cells; Oleyl, 5 μM): 83689 RLU; mean luminescent intensity (RLuc pDNA) (Hek293 cells; Oleyl, 10 μM): 22447 RLU; mean luminescent intensity (RLuc pDNA) (Hek293 cells; Oleyl, 15 μM): 7233 RLU
Ac-RHLK*RHK*RRLK*RH-NH2 (Ac-RHLKRHKRRLKRH-NH2; not fully specified (residues 4, 7, 11); printed as Ac-RHLK*RHK*RRLK*RH-NH2; also: linker on K* not given here) [13(3His)] |  | 563 | 238 | 541 | 2256 RLU |  |  | 18924 RLU | 2990 RLU | 8545 RLU |  |  | 46216 RLU | 51837 RLU | 10351 RLU | 37751 RLU | 330418 RLU | 145597 RLU | 36468 RLU | 25257 RLU | mean luminescent intensity (RLuc pDNA) (A549 cells; Dodecanal, 15 μM): 1261 RLU; mean luminescent intensity (RLuc pDNA) (A549 cells; Palmitoleyl, 10 μM): 2866 RLU; mean luminescent intensity (RLuc pDNA) (A549 cells; Petroselinyl, 5 μM): 5271 RLU; mean luminescent intensity (RLuc pDNA) (Hek293 cells; Oleyl, 5 μM): 294438 RLU; mean luminescent intensity (RLuc pDNA) (Hek293 cells; Oleyl, 10 μM): 191190 RLU; mean luminescent intensity (RLuc pDNA) (Hek293 cells; Oleyl, 15 μM): 87323 RLU
Ac-RHLK*RLK*RRLK*RL-NH2 (Ac-RHLKRLKRRLKRL-NH2; not fully specified (residues 4, 7, 11); printed as Ac-RHLK*RLK*RRLK*RL-NH2; also: linker on K* not given here) [13(Arg-His)] | 2974 | 1065 | 490 | 61 |  |  |  | 8561 RLU | 3763 RLU | 9721 RLU | 309302 RLU | 78888 RLU | 280799 RLU | 124471 RLU | 19968 RLU | 8162 RLU | 258944 RLU | 217264 RLU | 101890 RLU | 14340 RLU | mean fluorescence intensity (EGFP mRNA) (HCT116 cells; Myristoleyl, 5 μM): 4154; mean fluorescence intensity (EGFP mRNA) (HCT116 cells; Myristoleyl, 10 μM): 4744; mean fluorescence intensity (EGFP mRNA) (HCT116 cells; Palmitoleyl, 2.5 μM): 4249; mean luminescent intensity (RLuc pDNA) (A549 cells; Dodecanal, 5 μM): 6594 RLU; mean luminescent intensity (RLuc pDNA) (Hek293 cells; Dodecanal, 5 μM): 265059 RLU
Ac-RRHK*RLK*RRLK*RL-NH2 (Ac-RRHK(NHNH2)RLK(NHNH2)RRLK(NHNH2)RL-NH2; not fully specified; printed as Ac-RRHK*RLK*RRLK*RL-NH2; also: K*4,K*7,K*11: native or modified lysine (ε-amide to a linker)) [13(Leu-His)] | 2385 |  | 428 | 149 |  |  |  |  |  | 2865 RLU |  | 62749 RLU | 240629 RLU | 77558 RLU | 7639 RLU |  | 213228 RLU | 77709 RLU | 6882 RLU | 17058 RLU | mean fluorescence intensity (EGFP mRNA) (HCT116 cells; Palmitoleyl, 5 μM): 642
